Measurements from ChEMBL document CHEMBL4251577, “Synthesis and antiproliferative activity of pyrrolo[2,3-b]pyridine derivatives bearing the 1,8-naphthyridin-2-one moiety” (Eur J Med Chem, 2018).

Experiments:
[1] = system: HT-29; test: cells; conditions: Homo sapiens, HT-29, 72 h
[2] = system: A549; test: cells; conditions: Homo sapiens, A549, 72 h
Description: Antiproliferative activity against human A549 cells after 72 hrs by MTT assay

[3] = system: U-87 MG; test: Antiproliferative activity against human U87MG cells after 72 hrs by MTT assay; assay type: functional, cell-based, U-87MG ATCC
[4] = system: NCI-H460; test: Antiproliferative activity against human NCI-H460 cells after 72 hrs by MTT assay; assay type: functional, cell-based; conditions: NCI-H460, 72 h
[5] = target: Mast/stem cell growth factor receptor Kit (Homo sapiens, UniProt P10721); test: Inhibition of cKIT (unknown origin) using poly(Glu, Tyr) 4:1 as substrate after 30 mins by HTRF assay
[6] = target: Epidermal growth factor receptor (Homo sapiens, UniProt P00533); test: Inhibition of EGFR (unknown origin) using poly(Glu, Tyr) 4:1 as substrate after 30 mins by HTRF assay
[7] = system: HT-29; test: Potency index, ratio of foretinib IC50 to compound IC50 for antiproliferative activity against human HT-29 cells; assay type: functional
[8] = target: Vascular endothelial growth factor receptor 2 (Homo sapiens, UniProt P35968); test: Inhibition of VEGFR2 (unknown origin) using poly(Glu, Tyr) 4:1 as substrate after 30 mins by HTRF assay
[9] = system: NCI-H460; test: Potency index, ratio of foretinib IC50 to compound IC50 for antiproliferative activity against human NCI-H460 cells; assay type: functional
[10] = target: Platelet-derived growth factor receptor beta (Homo sapiens, UniProt P09619); test: Inhibition of PDGFRbeta (unknown origin) using poly(Glu, Tyr) 4:1 as substrate after 30 mins by HTRF assay
[11] = system: A549; test: Potency index, ratio of foretinib IC50 to compound IC50 for antiproliferative activity against human A549 cells; assay type: functional
[12] = target: Hepatocyte growth factor receptor (Homo sapiens, UniProt P08581); test: Inhibition of cMET (unknown origin) using poly(Glu,Tyr) 4:1 substrate after 30 mins by HTFR analysis
[13] = target: T1, Receptor-type tyrosine-protein kinase FLT3 (Homo sapiens, UniProt P36888); test: Inhibition of Flt-3 (unknown origin) using poly(Glu, Tyr) 4:1 as substrate after 30 mins by HTRF assay
T1 sequence (P36888 whole entry): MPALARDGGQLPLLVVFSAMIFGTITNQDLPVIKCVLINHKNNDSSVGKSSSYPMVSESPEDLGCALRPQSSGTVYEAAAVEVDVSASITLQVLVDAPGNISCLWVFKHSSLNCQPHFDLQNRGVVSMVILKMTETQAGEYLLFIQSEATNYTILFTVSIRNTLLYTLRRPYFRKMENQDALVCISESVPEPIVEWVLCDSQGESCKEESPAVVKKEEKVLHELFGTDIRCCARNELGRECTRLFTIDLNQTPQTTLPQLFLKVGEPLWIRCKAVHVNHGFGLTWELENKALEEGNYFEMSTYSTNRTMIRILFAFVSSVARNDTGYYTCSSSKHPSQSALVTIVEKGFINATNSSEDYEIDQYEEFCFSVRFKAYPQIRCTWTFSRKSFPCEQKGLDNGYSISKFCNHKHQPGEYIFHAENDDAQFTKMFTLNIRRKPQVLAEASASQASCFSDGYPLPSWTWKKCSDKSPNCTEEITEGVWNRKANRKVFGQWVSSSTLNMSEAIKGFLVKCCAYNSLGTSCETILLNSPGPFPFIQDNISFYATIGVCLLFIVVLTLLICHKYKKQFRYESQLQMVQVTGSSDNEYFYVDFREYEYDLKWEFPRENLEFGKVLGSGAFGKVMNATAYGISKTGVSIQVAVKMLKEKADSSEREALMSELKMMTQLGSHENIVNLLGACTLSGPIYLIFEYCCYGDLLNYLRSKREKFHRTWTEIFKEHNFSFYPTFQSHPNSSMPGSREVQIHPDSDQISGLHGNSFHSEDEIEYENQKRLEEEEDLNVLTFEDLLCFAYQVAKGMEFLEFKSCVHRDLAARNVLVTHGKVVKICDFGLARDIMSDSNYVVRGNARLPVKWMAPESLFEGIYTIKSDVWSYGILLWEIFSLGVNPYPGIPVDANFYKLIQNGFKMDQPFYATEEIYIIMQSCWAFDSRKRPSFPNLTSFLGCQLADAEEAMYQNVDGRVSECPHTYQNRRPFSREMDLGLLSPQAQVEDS

Vascular endothelial growth factor receptor 2, sequence (P35968 whole entry): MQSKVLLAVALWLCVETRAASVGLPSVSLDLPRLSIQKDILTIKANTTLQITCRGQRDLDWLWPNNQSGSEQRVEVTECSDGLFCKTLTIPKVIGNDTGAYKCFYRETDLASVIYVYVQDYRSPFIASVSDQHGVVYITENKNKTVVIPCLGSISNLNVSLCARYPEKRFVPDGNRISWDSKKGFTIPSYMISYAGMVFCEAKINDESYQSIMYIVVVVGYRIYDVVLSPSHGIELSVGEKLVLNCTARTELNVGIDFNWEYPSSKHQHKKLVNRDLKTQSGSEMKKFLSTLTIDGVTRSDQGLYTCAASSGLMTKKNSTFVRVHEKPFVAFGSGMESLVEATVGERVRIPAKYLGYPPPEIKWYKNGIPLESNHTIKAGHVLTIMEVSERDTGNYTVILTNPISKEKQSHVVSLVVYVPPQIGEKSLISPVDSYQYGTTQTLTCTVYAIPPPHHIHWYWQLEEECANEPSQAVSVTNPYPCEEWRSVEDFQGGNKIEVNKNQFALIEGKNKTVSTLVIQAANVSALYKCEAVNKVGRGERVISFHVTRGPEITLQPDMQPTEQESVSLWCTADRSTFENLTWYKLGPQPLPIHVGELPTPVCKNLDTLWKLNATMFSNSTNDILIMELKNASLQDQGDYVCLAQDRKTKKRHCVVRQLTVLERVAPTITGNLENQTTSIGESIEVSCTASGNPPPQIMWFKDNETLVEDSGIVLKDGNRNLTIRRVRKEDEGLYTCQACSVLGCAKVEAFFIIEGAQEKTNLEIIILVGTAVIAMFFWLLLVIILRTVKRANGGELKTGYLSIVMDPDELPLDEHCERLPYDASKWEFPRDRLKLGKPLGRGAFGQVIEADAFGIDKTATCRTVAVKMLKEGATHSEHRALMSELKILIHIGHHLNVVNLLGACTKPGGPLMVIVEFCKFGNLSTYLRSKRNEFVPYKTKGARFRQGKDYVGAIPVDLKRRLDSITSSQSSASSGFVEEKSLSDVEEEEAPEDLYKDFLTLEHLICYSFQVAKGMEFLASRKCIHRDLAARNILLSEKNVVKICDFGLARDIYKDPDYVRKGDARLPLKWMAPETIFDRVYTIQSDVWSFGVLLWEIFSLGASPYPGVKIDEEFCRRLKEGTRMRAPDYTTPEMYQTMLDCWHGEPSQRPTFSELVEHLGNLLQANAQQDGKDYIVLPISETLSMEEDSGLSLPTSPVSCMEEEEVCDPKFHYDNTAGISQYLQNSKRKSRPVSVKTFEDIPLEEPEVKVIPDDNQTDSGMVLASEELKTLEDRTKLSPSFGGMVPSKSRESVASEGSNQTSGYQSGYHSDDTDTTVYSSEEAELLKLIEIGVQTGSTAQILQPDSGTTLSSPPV
Epidermal growth factor receptor, sequence (P00533 whole entry): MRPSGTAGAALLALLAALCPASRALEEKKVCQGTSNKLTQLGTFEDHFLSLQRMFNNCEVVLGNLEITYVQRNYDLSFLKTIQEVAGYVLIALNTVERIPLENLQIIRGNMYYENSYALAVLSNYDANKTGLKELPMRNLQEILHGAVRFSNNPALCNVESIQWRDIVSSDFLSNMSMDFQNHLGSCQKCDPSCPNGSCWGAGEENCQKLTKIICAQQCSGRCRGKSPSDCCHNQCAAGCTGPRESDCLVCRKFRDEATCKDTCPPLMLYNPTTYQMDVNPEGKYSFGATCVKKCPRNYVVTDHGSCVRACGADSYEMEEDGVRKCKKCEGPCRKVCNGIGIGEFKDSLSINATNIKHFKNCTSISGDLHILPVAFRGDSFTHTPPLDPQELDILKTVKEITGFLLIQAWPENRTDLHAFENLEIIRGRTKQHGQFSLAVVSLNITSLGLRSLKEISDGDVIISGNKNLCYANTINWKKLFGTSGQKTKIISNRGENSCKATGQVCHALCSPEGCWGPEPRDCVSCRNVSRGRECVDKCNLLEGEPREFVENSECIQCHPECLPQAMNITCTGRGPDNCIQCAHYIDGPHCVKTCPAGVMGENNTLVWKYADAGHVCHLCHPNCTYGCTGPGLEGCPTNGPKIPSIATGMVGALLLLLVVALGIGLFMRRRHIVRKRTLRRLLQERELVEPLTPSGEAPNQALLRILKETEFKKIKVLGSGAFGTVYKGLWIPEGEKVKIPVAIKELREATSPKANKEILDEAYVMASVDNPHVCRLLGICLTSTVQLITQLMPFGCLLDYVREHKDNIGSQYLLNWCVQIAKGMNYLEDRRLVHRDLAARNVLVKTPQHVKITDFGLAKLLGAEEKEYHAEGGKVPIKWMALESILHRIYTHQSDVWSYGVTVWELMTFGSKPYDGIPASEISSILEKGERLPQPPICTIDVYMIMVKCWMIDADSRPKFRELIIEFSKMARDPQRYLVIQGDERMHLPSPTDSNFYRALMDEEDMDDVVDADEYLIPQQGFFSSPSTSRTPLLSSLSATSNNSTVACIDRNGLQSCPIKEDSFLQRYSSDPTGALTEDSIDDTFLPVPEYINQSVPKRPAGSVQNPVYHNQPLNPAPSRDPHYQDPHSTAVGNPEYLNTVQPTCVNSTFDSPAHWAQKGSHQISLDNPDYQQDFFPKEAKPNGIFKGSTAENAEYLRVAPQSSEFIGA
Platelet-derived growth factor receptor beta, sequence (P09619 whole entry): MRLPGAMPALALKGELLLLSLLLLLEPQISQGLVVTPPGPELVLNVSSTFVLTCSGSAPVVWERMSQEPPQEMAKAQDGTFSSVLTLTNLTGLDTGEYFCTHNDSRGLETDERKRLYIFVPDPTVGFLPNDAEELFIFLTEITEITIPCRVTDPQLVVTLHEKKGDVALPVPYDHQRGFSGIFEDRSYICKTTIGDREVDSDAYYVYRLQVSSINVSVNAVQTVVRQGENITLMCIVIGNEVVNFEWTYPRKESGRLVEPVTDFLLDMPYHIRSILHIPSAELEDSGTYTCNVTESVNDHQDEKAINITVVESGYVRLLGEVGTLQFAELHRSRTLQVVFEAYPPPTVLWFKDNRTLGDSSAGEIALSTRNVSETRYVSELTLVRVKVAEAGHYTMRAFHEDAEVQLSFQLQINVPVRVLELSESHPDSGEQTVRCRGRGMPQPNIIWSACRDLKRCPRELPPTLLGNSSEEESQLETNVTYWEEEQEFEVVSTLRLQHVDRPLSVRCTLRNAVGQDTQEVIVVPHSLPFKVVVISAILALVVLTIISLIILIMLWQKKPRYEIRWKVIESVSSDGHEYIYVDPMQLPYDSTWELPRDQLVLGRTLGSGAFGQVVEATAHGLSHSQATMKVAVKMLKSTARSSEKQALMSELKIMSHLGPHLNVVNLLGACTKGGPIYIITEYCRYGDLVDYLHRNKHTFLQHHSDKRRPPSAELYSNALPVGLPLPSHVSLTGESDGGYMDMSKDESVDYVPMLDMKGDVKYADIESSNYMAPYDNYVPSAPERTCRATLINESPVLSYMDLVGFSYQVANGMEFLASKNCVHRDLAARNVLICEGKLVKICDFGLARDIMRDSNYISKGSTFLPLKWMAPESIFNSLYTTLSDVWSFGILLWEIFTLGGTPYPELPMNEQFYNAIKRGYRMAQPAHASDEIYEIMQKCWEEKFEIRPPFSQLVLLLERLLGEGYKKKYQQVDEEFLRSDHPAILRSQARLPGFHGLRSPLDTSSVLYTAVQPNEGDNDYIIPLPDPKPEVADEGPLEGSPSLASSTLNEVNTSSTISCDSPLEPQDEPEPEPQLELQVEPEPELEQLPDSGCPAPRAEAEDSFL
Mast/stem cell growth factor receptor Kit, sequence (P10721 whole entry): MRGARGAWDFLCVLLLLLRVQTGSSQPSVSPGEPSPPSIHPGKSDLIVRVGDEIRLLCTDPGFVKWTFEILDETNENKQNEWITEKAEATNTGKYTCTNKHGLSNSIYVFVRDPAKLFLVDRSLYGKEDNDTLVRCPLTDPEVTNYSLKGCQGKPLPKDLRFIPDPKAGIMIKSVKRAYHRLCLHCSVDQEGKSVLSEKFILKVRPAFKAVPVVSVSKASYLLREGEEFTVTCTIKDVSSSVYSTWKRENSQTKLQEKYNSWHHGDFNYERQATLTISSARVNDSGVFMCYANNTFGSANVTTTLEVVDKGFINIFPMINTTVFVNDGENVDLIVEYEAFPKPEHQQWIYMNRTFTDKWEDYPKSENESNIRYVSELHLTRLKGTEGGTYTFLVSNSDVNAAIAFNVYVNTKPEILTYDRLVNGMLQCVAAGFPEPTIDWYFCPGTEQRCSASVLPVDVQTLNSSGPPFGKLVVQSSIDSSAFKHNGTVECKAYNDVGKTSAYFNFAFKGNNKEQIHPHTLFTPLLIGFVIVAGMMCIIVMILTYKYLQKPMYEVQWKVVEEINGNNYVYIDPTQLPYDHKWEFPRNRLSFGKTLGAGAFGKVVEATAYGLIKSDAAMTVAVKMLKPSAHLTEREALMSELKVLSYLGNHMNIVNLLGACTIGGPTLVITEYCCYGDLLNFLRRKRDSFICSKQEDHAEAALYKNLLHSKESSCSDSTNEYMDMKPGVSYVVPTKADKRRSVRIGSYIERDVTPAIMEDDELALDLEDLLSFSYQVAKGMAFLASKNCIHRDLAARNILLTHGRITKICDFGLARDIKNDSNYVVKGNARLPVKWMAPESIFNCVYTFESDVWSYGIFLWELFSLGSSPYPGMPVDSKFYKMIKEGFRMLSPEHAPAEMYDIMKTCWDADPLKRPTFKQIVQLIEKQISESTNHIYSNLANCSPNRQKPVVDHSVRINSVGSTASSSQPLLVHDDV

Structure (SMILES)	IC50 [1] [nM]	IC50 [2] [nM]	IC50 [3] [nM]	IC50 [4] [nM]	further results
O=C(Nc1ccc(Oc2ccnc3[nH]ccc23)cc1)c1cc2cccnc2n(-c2ccc(F)c(Cl)c2)c1=O	560	680	–	–	–
Cn1ccc2c(Oc3ccc(NC(=O)c4cc5cccnc5n(-c5ccc(Br)cc5)c4=O)cc3)ccnc21	690	680	–	–	–
COc1ccc(-n2c(=O)c(C(=O)Nc3ccc(Oc4ccnc5c4ccn5C)c(F)c3)cc3cccnc32)cc1	1290	2750	–	–	–
Cn1ccc2c(Oc3ccc(NC(=O)c4cc5cccnc5n(-c5ccccc5)c4=O)cc3)ccnc21	620	850	5030	560	–
Cn1ccc2c(Oc3ccc(NC(=O)c4cc5cccnc5n(-c5ccc(C(F)(F)F)cc5Cl)c4=O)cc3F)ccnc21	5830	3530	10200	6010	–
COc1ccc(-n2c(=O)c(C(=O)Nc3ccc(Oc4ccnc5[nH]ccc45)c(F)c3)cc3cccnc32)cc1	540	610	–	–	–
Cn1ccc2c(Oc3ccc(NC(=O)c4cc5cccnc5n(-c5ccc(F)c(Cl)c5)c4=O)cc3)ccnc21	1210	820	2350	1210	–
Cn1ccc2c(Oc3ccc(NC(=O)c4cc5cccnc5n(-c5ccc(Cl)cc5)c4=O)cc3)ccnc21	730	630	–	–	–
Cn1ccc2c(Oc3ccc(NC(=O)c4cc5cccnc5n(-c5ccc(F)c(Cl)c5)c4=O)cc3F)ccnc21	2460	3560	–	–	–
COc1ccc(-n2c(=O)c(C(=O)Nc3ccc(Oc4ccnc5[nH]ccc45)cc3)cc3cccnc32)cc1	1260	930	2350	960	–
Cn1ccc2c(Oc3ccc(NC(=O)c4cc5cccnc5n(-c5ccccc5)c4=O)cc3F)ccnc21	510	430	3590	550	–
COc1ccc(-n2c(=O)c(C(=O)Nc3ccc(Oc4ccnc5c4ccn5C)cc3)cc3cccnc32)cc1	2050	3460	5150	1920	–
O=C(Nc1ccc(Oc2ccnc3[nH]ccc23)cc1)c1cc2cccnc2n(-c2ccc(C(F)(F)F)cc2Cl)c1=O	2160	3230	6030	1950	–
O=C(Nc1ccc(Oc2ccnc3[nH]ccc23)cc1)c1cc2cccnc2n(-c2ccc(Br)cc2F)c1=O	2360	1570	–	–	–
Cn1ccc2c(Oc3ccc(NC(=O)c4cc5cccnc5n(-c5ccc(Br)cc5F)c4=O)cc3)ccnc21	2580	1630	–	–	–
O=C(Nc1ccc(Oc2ccnc3[nH]ccc23)c(F)c1)c1cc2cccnc2n(-c2ccc(C(F)(F)F)cc2Cl)c1=O	1360	1020	–	–	–
Cn1ccc2c(Oc3ccc(NC(=O)c4cc5cccnc5n(-c5ccc(C(F)(F)F)cc5Cl)c4=O)cc3)ccnc21	6050	8250	12600	6950	–
Cn1ccc2c(Oc3ccc(NC(=O)c4cc5cccnc5n(-c5ccc(Br)cc5F)c4=O)cc3F)ccnc21	3290	2690	6470	3150	–
O=C(Nc1ccc(Oc2ccnc3[nH]ccc23)c(F)c1)c1cc2cccnc2n(-c2ccc(Br)cc2F)c1=O	820	460	–	–	–

Compounds with a lower IC50 [1], results first:

IC50 [1] [nM]	IC50 [2] [nM]	IC50 [3] [nM]	IC50 [4] [nM]	Structure (SMILES)	further results
160	190	1260	180	O=C(Nc1ccc(Oc2ccnc3[nH]ccc23)c(F)c1)c1cc2cccnc2n(-c2ccccc2)c1=O	–
160	210	1360	190	O=C(Nc1ccc(Oc2ccnc3[nH]ccc23)cc1)c1cc2cccnc2n(-c2ccc(F)cc2)c1=O	–
82	110	–	–	O=C(Nc1ccc(Oc2ccnc3[nH]ccc23)c(F)c1)c1cc2cccnc2n(-c2ccc(Cl)cc2)c1=O	–
220	350	–	–	Cn1ccc2c(Oc3ccc(NC(=O)c4cc5cccnc5n(-c5ccc(Cl)cc5)c4=O)cc3F)ccnc21	–
290	360	1580	380	O=C(Nc1ccc(Oc2ccnc3[nH]ccc23)cc1)c1cc2cccnc2n(-c2ccccc2)c1=O	–
310	630	5230	1050	O=C(Nc1ccc(Oc2ccnc3[nH]ccc23)c(F)c1)c1cc2cccnc2n(-c2ccc(F)c(Cl)c2)c1=O	–
330	390	2580	420	Cn1ccc2c(Oc3ccc(NC(=O)c4cc5cccnc5n(-c5ccc(Br)cc5)c4=O)cc3F)ccnc21	–
280	290	3370	290	O=C(Nc1ccc(Oc2ccnc3[nH]ccc23)cc1)c1cc2cccnc2n(-c2ccc(Cl)cc2)c1=O	–
120	210	1510	260	O=C(Nc1ccc(Oc2ccnc3[nH]ccc23)c(F)c1)c1cc2cccnc2n(-c2ccc(Br)cc2)c1=O	–
36	62	620	87	O=C(Nc1ccc(Oc2ccnc3[nH]ccc23)c(F)c1)c1cc2cccnc2n(-c2ccc(F)cc2)c1=O	IC50 [5]: 684 nM; IC50 [6]: 633 nM; Ratio IC50 [7]: 7.2; IC50 [8]: 152 nM; Ratio IC50 [9]: 3.2; IC50 [10]: 1.81 nM; Ratio IC50 [11]: 5.2; IC50 [12]: 1.92 nM; IC50 [13]: 1.16 nM
160	280	1320	250	Cn1ccc2c(Oc3ccc(NC(=O)c4cc5cccnc5n(-c5ccc(F)cc5)c4=O)cc3F)ccnc21	–
270	280	–	–	O=C(Nc1ccc(Oc2ccnc3[nH]ccc23)cc1)c1cc2cccnc2n(-c2ccc(Br)cc2)c1=O	–
250	210	2120	260	Cn1ccc2c(Oc3ccc(NC(=O)c4cc5cccnc5n(-c5ccc(F)cc5)c4=O)cc3)ccnc21	–
